The record followed here is patent publication US12447167B2, “GM-CSF-producing t-cell control agent and Th1/Th2 immune balance regulator” (National Center of Neurology and Psychiatry, priority 2014, dated 2025).

This experiment has as its system IL-4. The experiment is described as follows: IL-4 expression level of sorted CD4-positive memory T-cells of MS patients (ELISA of culture supernatant). The following applies: 0.3 mg single oral. Format: in vivo, human. The method, then: A single dose of compound 31, which is a synthetic glycolipid of the present invention, described in the first aspect was orally administered to each of 2 MS patients (subjects) shown in Table 2 above after obtainment of informed consent. The dose was set to 0.3 mg per person.
Subsequently, T-cell subfractions were prepared from the peripheral blood of each subject by using the density gradient centrifugation method. First, a total of 20 mL of blood was collected from the vein of each subject 24 hours (1st day), 48 hours (2nd day), 72 hours (3rd day), 168 hours (7th day), and 192 hours (8th day) after the administration of compound 31 by using two 10-mL heparin sodium-containing vacuum blood collection tubes. For a control, 20 mL of blood was similarly collected from the vein of each subject one day before the administration of compound 31.
The collected PBMCs were stained with antibodies by the following method. First, 10 μL of a solution consisting of 20 μL of MACS buffer, 0.25 μL of APC-Cy7-anti-CD3 antibody (BioLegend, Inc.), 1 μL of PB-anti-CD4 antibody (BioLegend, Inc.), 1 μL of PerCP-Cy5.5-anti-CD45RA antibody (BioLegend, Inc.), and 1 μL of PC7-anti-CD56 antibody (Beckman Coulter, Inc.) was added to 6×10^6 cells of PBMCs, thoroughly mixed by vortexing, and then left on ice for 20 minutes. CD56 is a detection marker of cells having NK activity, and CD3^−CD56^− cells indicate being antigen-presenting cells (APCs). […]
mCD4T and APC obtained by the sorting were each suspended in a medium consisting of 500 mL of RPMI1640 (GIBCO/Thermo Fisher Scientific Inc.), 5 mL of glutamine (200 mM, Wako Pure Chemical Industries, Ltd.), 5 mL of Pen/strep (10,000 U/mL, GIBCO/Thermo Fisher Scientific Inc.), 0.5 mL of 2-mercaptoethanol (GIBCO/Thermo Fisher Scientific Inc.), and 50 mL of 10% (v/v) Cellect FETAL BOVINE SERUM (MP Biomedicals, LLC), and the number of cells was measured. […]
After the culture, a culture supernatant was collected, and IFN-γ, IL-4, IL-17, and GM-CSF were measured by the ELISA method. […]
A general note: An ELISA detects its analyte on a solid surface through an enzyme-linked reagent.

Regarding `CCCCCCCCCCCCCCCCCCCCCCCC(=O)NC(COC1OC(CO)C(O)C(O)C1O)[C@H](O)C(O)CCCCC` (stereo in doubt) [compound 31, (2S,3S,4R)-1-O-(α-D-galactosyl)-2-(N-tetracosanoylamino)-1,3,4-nonanetriol], the IL-4 expression level (day 8, MBP stimulation, day −1 value 3.63) was 6.38 and the IL-4 expression level (day 8, OVA stimulation, day −1 value 3.66) is recorded as 7.19. Besides, under “day8 vs day-1”, the “change of expression level of IL-4” value was “increased”.
